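Interpolation was linear, between the two tested concentrations surrounding the appropriate level; five concentrations were tested over 48 hours in 96-well plates. Abbreviation: GI50, concentration required for 50% inhibition of growth.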 The source made the active and inactive calls. No stated cut-off is given here; in the data, active = GI50 up to about 1.1 µM and inactive = higher.
Tests used:
Assay in all cases: NCI-60 cell line screen, 48 h
SK-MEL-2 = system: SK-MEL-2
SF-268 = system: SF-268
OVCAR-5 = system: OVCAR-5
HCC 2998 = system: HCC 2998
U-251 = system: U-251
T47D = system: T47D
HL-60 = system: HL-60
IGROV-1 = system: IGROV-1
MCF7 = system: MCF7
Hs-578T = system: Hs-578T
SK-MEL-28 = system: SK-MEL-28
MDA-N = system: MDA-N
DU-145 = system: DU-145
A549 = system: A549
SN12C = system: SN12C
TK-10 = system: TK-10
UACC-62 = system: UACC-62
UO-31 = system: UO-31
SR = system: SR
SF-539 = system: SF-539
HOP-92 = system: HOP-92
OVCAR-4 = system: OVCAR-4
CAKI-1 = system: CAKI-1
PC-3 = system: PC-3
SW-620 = system: SW-620
SNB-19 = system: SNB-19
A498 = system: A498
LOX IMVI = system: LOX IMVI
UACC-257 = system: UACC-257
KM12 = system: KM12
EKVX = system: EKVX
COLO 205 = system: COLO 205
SNB-75 = system: SNB-75
MDA-MB-231 = system: MDA-MB-231
NCI-H522 = system: NCI-H522
SK-OV-3 = system: SK-OV-3
HCT-15 = system: HCT-15
RXF 393 = system: RXF 393
CCRF-CEM = system: CCRF-CEM
Malme-3M = system: Malme-3M
K562 = system: K562
SK-MEL-5 = system: SK-MEL-5
BT-549 = system: BT-549
NCI-H226 = system: NCI-H226
OVCAR-8 = system: OVCAR-8
HT-29 = system: HT-29
HOP-62 = system: HOP-62
HCT-116 = system: HCT-116
NCI/ADR-RES = system: NCI/ADR-RES
NCI-H23 = system: NCI-H23
MDA-MB-435 = system: MDA-MB-435
OVCAR-3 = system: OVCAR-3
786-0 = system: 786-0
SF-295 = system: SF-295
NCI-H460 = system: NCI-H460
RPMI-8226 = system: RPMI-8226
M14 = system: M14
ACHN = system: ACHN
MOLT-4 = system: MOLT-4

For `C[n+]1[n-]o/c(=N\N=O)c1-c1cc(-c2/c(=N/N=O)o[n-][n+]2C)cc(-c2/c(=N\N=O)o[n-][n+]2C)c1`, the GI50 (SK-MEL-2) was > 100 µM (inactive), the GI50 (SF-268) was > 100 µM (inactive) and the GI50 (OVCAR-5) was > 100 µM (inactive). For the same compound, the GI50 (HCC 2998) was > 100 µM (inactive), the GI50 (U-251) was > 100 µM (inactive) and the GI50 (T47D) was > 100 µM (inactive). For the same compound, the GI50 (HL-60) was > 100 µM (inactive), the GI50 (IGROV-1) was > 100 µM (inactive) and the GI50 (MCF7) was > 100 µM (inactive). For the same compound, the GI50 (Hs-578T) was > 100 µM (inactive), the GI50 (SK-MEL-28) was > 100 µM (inactive) and the GI50 (MDA-N) was > 100 µM (inactive). The GI50 (DU-145) was > 100 µM (inactive), the GI50 (A549) was > 100 µM (inactive) and the GI50 (SN12C) was > 100 µM (inactive). The GI50 (TK-10) was > 100 µM (inactive), the GI50 (UACC-62) was > 100 µM (inactive) and the GI50 (UO-31) was > 100 µM (inactive). The GI50 (SR) was > 100 µM (inactive), the GI50 (SF-539) was > 100 µM (inactive) and the GI50 (HOP-92) was > 100 µM (inactive). For the same compound, the GI50 (OVCAR-4) was > 100 µM (inactive), the GI50 (CAKI-1) was > 100 µM (inactive) and the GI50 (PC-3) was > 100 µM (inactive). For the same compound, the GI50 (SW-620) was > 100 µM (inactive), the GI50 (SNB-19) was > 100 µM (inactive) and the GI50 (A498) was > 100 µM (inactive). For the same compound, the GI50 (LOX IMVI) was > 100 µM (inactive), the GI50 (UACC-257) was > 100 µM (inactive) and the GI50 (KM12) was > 100 µM (inactive). For the same compound, the GI50 (EKVX) was > 100 µM (inactive), the GI50 (COLO 205) was > 100 µM (inactive) and the GI50 (SNB-75) was 68.1 µM (inactive). The GI50 (MDA-MB-231) was > 100 µM (inactive), the GI50 (NCI-H522) was > 100 µM (inactive) and the GI50 (SK-OV-3) was > 100 µM (inactive). For the same compound, the GI50 (HCT-15) was over 100 µM, the GI50 (RXF 393) was > 100 µM (inactive) and the GI50 (CCRF-CEM) was > 100 µM (inactive). For the same compound, the GI50 (Malme-3M) was > 100 µM (inactive), the GI50 (K562) was > 100 µM (inactive) and the GI50 (SK-MEL-5) was > 100 µM (inactive). The GI50 (BT-549) was > 100 µM (inactive), the GI50 (NCI-H226) was > 100 µM (inactive) and the GI50 (OVCAR-8) was > 100 µM (inactive). For the same compound, the GI50 (HT-29) was > 100 µM (inactive), the GI50 (HOP-62) was > 100 µM (inactive) and the GI50 (HCT-116) was > 100 µM (inactive). The GI50 (NCI/ADR-RES) was > 100 µM (inactive), the GI50 (NCI-H23) was > 100 µM (inactive) and the GI50 (MDA-MB-435) was > 100 µM (inactive). For the same compound, the GI50 (OVCAR-3) was > 100 µM (inactive), the GI50 (786-0) was > 100 µM (inactive) and the GI50 (SF-295) was > 100 µM (inactive). For the same compound, the GI50 (NCI-H460) was > 100 µM (inactive), the GI50 (RPMI-8226) was > 100 µM (inactive) and the GI50 (M14) was > 100 µM (inactive). For the same compound, the GI50 (ACHN) was > 100 µM (inactive) and the GI50 (MOLT-4) was > 100 µM (inactive).
